Laboratory results published in patent publication US20260055051A1, “Compound with anti-tumor activity, preparation method therefor, and use thereof” (Ocean University of China, priority 2022, published 2026).
pIC50: −log10 of the molar value.

How the values were obtained:
A549 cells = assay: A549 cell-BALB/c nude mouse subcutaneous tumor transplantation experiment; type: in vivo, BALB/c nude mice; settings: A549 model, test compound 0.5 mg/mL at 10 mL/kg tail vein, 15 times, 6 times; for average tumor volume at the end of the experiment: 5 times a week, 5-fu 20 mg/kg twice a week; for inhibitory effect (inhibition rate of average tumor weight, FIG. 6): 5-fu 20 mg/kg
Protocol: (§1) BALB/c nude mice were subcutaneously inoculated with A549, HCT116 and HT-29 cells to establish tumor transplantation models. • Solvent Control Group: 2% DMSO+normal saline+sodium carbonate (the molar ratio of the compound to sodium carbonate is 1:2) • 5-fluorouracil control group: 5-fluorouracil injection (20 mg/kg);
(§2) Test compound group: 1 mg of a test compound was fully dissolved in […] DMSO, and then diluted with normal saline to 0.5 mg/mL. 2 mL was used each time, freshly prepared before use on the same day.
(§3) Eight mice were in each group.
(§4) The solvent control group and the test compound group were administered at a dose of 10 mL/kg via tail vein injection (the dose for each administration was calculated based on the body weight on that day), 5 times a week, for a total of 15 times. The animals were euthanized after the last administration.
(§5) The 5-fluorouracil control group was administered twice a week for a total of 6 times.
(§6) The body weight and tumor diameter were measured twice a week during the administration period. Tumors and the spleen were removed and weighed after euthanasia. The tumor volume, relative tumor volume (RTV), relative tumor growth rate (T/C %), tumor volume inhibition rate (IRTV%), and tumor weight inhibition rate (IRTW%) were calculated. Data for animals that died accidentally were only listed but excluded from statistical analysis.

HCT116 cells = assay: HCT116 cell-BALB/c nude mouse subcutaneous tumor transplantation experiment; type: in vivo, BALB/c nude mice; settings: HCT116 model, test compound 0.5 mg/mL at 10 mL/kg tail vein, 15 times, 6 times; for average tumor volume at the end of the experiment: 5 times a week, 5-fu 20 mg/kg twice a week; for inhibitory effect (inhibition rate of average tumor weight, FIG. 6): 5-fu 20 mg/kg
Protocol: as §1, §2, §3, §4, §5, §6

HT-29 cells = assay: HT-29 cell-BALB/c nude mouse subcutaneous tumor transplantation experiment; type: in vivo, BALB/c nude mice; settings: HT-29 model, test compound 0.5 mg/mL at 10 mL/kg tail vein, 15 times, 6 times; for average tumor volume at the end of the experiment: 5 times a week, 5-fu 20 mg/kg twice a week; for inhibitory effect (inhibition rate of average tumor weight, FIG. 6): 5-fu 20 mg/kg
Protocol: as §1, §2, §3, §4, §5, §6

[1] = Body weight of tumor-transplanted mice during administration; type: in vivo; settings: A549, HCT116 and HT-29 transplanted mice, during administration period
Protocol: as §1, §2, §3, §4, §5, §6

[2] = system: human lung cancer cell line A549; assay: In vitro tumor cell proliferation inhibition assay (SRB method), A549; type: cell-based; settings: 72 hours, SRB; for pIC50: mean of triplicate experiments, read-out: IC50 against A549; for inhibition at 10 µM: test compounds 10 μM, read-out: Inhibition rate on A549
Protocol: (§7) Sulforhodamine B Colorimetric Method (SRB Method) and MTT Colorimetric Method (MTT Method)
(§8) Human lung cancer cell line A549, human liver cancer cell line HepG2, human colon cancer cell line HCT116, human colon cancer cell line HT-29, human leukemia cell line K562, human cervical cancer cell line hela, and human breast cancer cell line MCF-7, all provided by the Shanghai Cell Bank, Chinese Academy of Sciences.
(§9) A549, HepG2, HCT116, HT-29, K562, hela, and MCF-7 cells were cultured respectively in 1640, DMEM, 5A, 5A, 1640, DMEM, and 1640 culture media containing 10 wt % heat-inactivated FBS (fetal bovine serum), 2 mM L-glutamine, 100 U/mL penicillin and […] streptomycin, in a cell incubator at 37° C. and 5 vol % CO2. The medium was replaced every two days. After the A549, HepG2, HCT116, HT-29, hela, and MCF-7 cells were confluent, they were digested with 0.05% (w/v) trypsin-EDTA at 37° C., passaged, and maintained in the logarithmic growth phase suitable for testing. The K562 suspension cells were passaged without digestion, and maintained in the logarithmic growth phase suitable for testing. The A549, HepG2, HCT116, HT-29, K562, hela, and MCF-7 cells in the logarithmic growth phase were inoculated to 96-well plates at 5000, 5000, 5000, 5000, 6000, 5000, 5000 per well, respectively, and cultured at 37° C. for 24 h.
(§10) Then various concentrations of test samples were added. The positive control group was doxorubicin hydrochloride (final concentration was 1 μM), the solvent control group was an equal volume of DMSO, and the blank control group was an equal volume of a culture medium, with 4 replicate wells for each concentration. After the A549, HepG2, HCT116, HT-29, hela, and MCF-7 cells were treated with the test drugs for 72 hours, the cells in each well were fixed with 50% (m/v) cold trichloroacetic acid (TCA) and stained with SRB. Then […] of Tris solution was added, and the OD value at the wavelength of 540 nm was measured using a microplate reader. For K562 cells, after 72 hours of treatment with the test drugs, […] of 5 mg/mL MTT was added, and the cells were incubated at 37° C. for 4 hours. Next, […] of a triplet solution (10% SDS, 5% isobutanol, 12 mM HCl) was added, followed by further incubation for 12 to 20 hours. The OD value at the wavelength of 570 nm was measured using a microplate reader.
(§11) The tumor cell growth inhibition rate was calculated according to the following equation: […]
(§12) in the equation, • OD540 control well is the absorbance of the control group; • OD540 dosing well is the absorbance of the test group.
(§13) IC50 values of the test drugs (calculated by GraphPad Prism 5 software) were the means of the results of triplicate experiments.

[3] = system: human liver cancer cell line HepG2; assay: In vitro tumor cell proliferation inhibition assay (SRB method), HepG2; type: cell-based; settings: 72 hours, SRB; for pIC50: mean of triplicate experiments, read-out: IC50 against HepG2; for inhibition at 10 µM: test compounds 10 μM, read-out: Inhibition rate on HepG2
Protocol: as §7, §8, §9, §10, §11, §12, §13

[4] = system: human colon cancer cell line HCT116; assay: In vitro tumor cell proliferation inhibition assay (SRB method), HCT116; type: cell-based; settings: SRB; for pIC50: HCT-116, 72 hours, mean of triplicate experiments, read-out: IC50 against HCT116; for inhibition at 10 µM: HCT-116, test compounds 10 μM, 72 hours, read-out: Inhibition rate on HCT116
Protocol: as §7, §8, §9, §10, §11, §12, §13

[5] = system: human colon cancer cell line HT-29; assay: In vitro tumor cell proliferation inhibition assay (SRB method), HT-29; type: cell-based; settings: 72 hours, SRB, mean of triplicate experiments, read-out: IC50 against HT-29
Protocol: as §7, §8, §9, §10, §11, §12, §13

[6] = system: human leukemia cell line K562; assay: In vitro tumor cell proliferation inhibition assay (MTT method), K562; type: cell-based; settings: 72 hours, mean of triplicate experiments, read-out: IC50 against K562
Protocol: as §7, §8, §9, §10, §11, §12, §13

[7] = system: human cervical cancer cell line hela; assay: In vitro tumor cell proliferation inhibition assay (SRB method), hela; type: cell-based; settings: 72 hours, SRB, mean of triplicate experiments, read-out: IC50 against hela
Protocol: as §7, §8, §9, §10, §11, §12, §13

[8] = system: human breast cancer cell line MCF-7; assay: In vitro tumor cell proliferation inhibition assay (SRB method), MCF-7; type: cell-based; settings: MCF7, 72 hours, SRB, mean of triplicate experiments, read-out: IC50 against MCF-7
Protocol: as §7, §8, §9, §10, §11, §12, §13

[9] = system: A549, HepG2, HCT116, HT-29, K562, hela, and MCF-7 cell lines; assay: In vitro tumor cell proliferation inhibition assay, summary over all 7 types of cells; type: cell-based; settings: Homo sapiens, upper bound over A549, HepG2, HCT116, HT-29, K562, hela, MCF-7
Protocol: as §7, §8, §9, §10, §11, §12, §13

## O=c1[nH]cc(F)c(=O)[nH]1 [Compound 5-fu, 5-fluorouracil, reference compound]
A549 cells
  average tumor volume at the end of the experiment: 322.03 mm^3
  inhibitory effect (inhibition rate of average tumor weight, FIG. 6): 43.11%
HCT116 cells
  average tumor volume at the end of the experiment: 599.83 mm^3
  inhibitory effect (inhibition rate of average tumor weight, FIG. 6): 44.81%
HT-29 cells
  average tumor volume at the end of the experiment: 658.02 mm^3
  inhibitory effect (inhibition rate of average tumor weight, FIG. 6): 44.60%
[1]
  body weight compared to the solvent control (FIG. 2): significant weight loss

## CC(=O)NCc1c(C)cc(O)c(C)c1C [Compound I-6, N-(2,3,6-trimethyl-4-hydroxybenzyl) acetamide]
[2]
  pIC50: 5.23
  inhibition at 10 µM: 94.9%
[3]
  pIC50: 5.08
  inhibition at 10 µM: 81.1%
[4]
  pIC50: 5.13
  inhibition at 10 µM: 96.6%
[5]
  pIC50: 4.45
[6]
  pIC50: 5.01
[7]
  pIC50: 5.05
[8]
  pIC50: 5.16
A549 cells
  average tumor volume at the end of the experiment: 492.12 mm^3
  inhibitory effect (inhibition rate of average tumor weight, FIG. 6): 35.19%
HT-29 cells
  average tumor volume at the end of the experiment: 559.37 mm^3
  inhibitory effect (inhibition rate of average tumor weight, FIG. 6): 32.07%
[9]
  pIC50: > 4.45

## Cc1cc(O)c(CNC(=O)CCl)c(C)c1Cl [Compound I-7, N-(2,4-dimethyl-3-chloro-6-hydroxybenzyl) chloroacetamide]
[2]
  pIC50: 5.09
  inhibition at 10 µM: 55%
[3]
  pIC50: 5.06
  inhibition at 10 µM: 95.8%
[4]
  pIC50: 5.13
  inhibition at 10 µM: 95.1%
[5]
  pIC50: 4.54
[6]
  pIC50: 4.89
[7]
  pIC50: 5.01
[8]
  pIC50: 5.24
A549 cells
  average tumor volume at the end of the experiment: 559.37 mm^3
  inhibitory effect (inhibition rate of average tumor weight, FIG. 6): 33.56%
HCT116 cells
  average tumor volume at the end of the experiment: 624.48 mm^3
HT-29 cells
  inhibitory effect (inhibition rate of average tumor weight, FIG. 6): 26.52%
[9]
  pIC50: > 4.45

## COc1c(CNC(=O)CCl)c(C)cc(C)c1CNC(=O)CCl [Compound I-4, N-(2-methoxy-3-chloroacetamidomethyl-4,6-dimethylbenzyl) chloroacetamide]
[2]
  pIC50: 5.18
  inhibition at 10 µM: 69%
[3]
  pIC50: 5.10
  inhibition at 10 µM: 82.9%
[4]
  pIC50: 5.40
  inhibition at 10 µM: 69.3%
[5]
  pIC50: 4.75
[6]
  pIC50: 5.03
[7]
  pIC50: 5.03
[8]
  pIC50: 5.24
A549 cells
  inhibitory effect (inhibition rate of average tumor weight, FIG. 6): 22.05%
HCT116 cells
  average tumor volume at the end of the experiment: 574.36 mm^3
  inhibitory effect (inhibition rate of average tumor weight, FIG. 6): 29.86%
HT-29 cells
  inhibitory effect (inhibition rate of average tumor weight, FIG. 6): 23.90%
[9]
  pIC50: > 4.45
